target: BRD4 (Homo sapiens, UniProt O60885); experiment: Time Resolved Fluorescence Resonance Energy Transfer (TR-FRET) binding assay, BRD4; settings: one of the FRET assays described; read-out: FRET BRD4 IC50

| SMILES | IC50 [nM] |
| --- | --- |
| Cc1nnn(C)c1-c1cnc2c3cc(F)c(C(C)(O)C4CC4)cc3n([C@H](c3ccccc3F)C3CCOCC3)c2c1 (single isomer, unassigned) [Example 447] | < 5 |
| Cc1nnn(C)c1-c1cnc2c3cc(F)c(C(C)(O)C4CC4)cc3n([C@H](c3ccccc3F)C3CCOCC3)c2c1 (single isomer, unassigned) [Example 448] | < 5 |
| Cc1nnn(C)c1-c1cnc2c3cc(F)c(C(C)(O)C4CC4)c(F)c3n([C@H](c3ccccc3)C3CCOCC3)c2c1 (single isomer, unassigned) [Example 449] | < 5 |
| Cc1nnn(C)c1-c1cnc2c3cc(F)c(C(C)(O)C4CC4)c(F)c3n([C@H](c3ccccc3)C3CCOCC3)c2c1 (single isomer, unassigned) [Example 450] | < 5 |
| [2H]C([2H])([2H])c1nnn(C)c1-c1cnc2c3ccc(C(C)(C)O)c(F)c3n(C(c3ncccc3F)C3CCC(F)(F)CC3)c2c1 (single isomer, unassigned) [Example 456] | < 5 |
| [2H]C([2H])([2H])c1nnn(C)c1-c1cnc2c3ccc(C(C)(C)O)cc3n(C(c3cc(Cl)ccn3)C3CCOCC3)c2c1 (single isomer, unassigned) [Example 457] | < 5 |
| [2H]C([2H])([2H])c1nnn(C)c1-c1cnc2c3ccc(C(C)(C)O)c(F)c3n(C(c3ncccc3F)C3CCOCC3)c2c1 (single isomer, unassigned) [Example 458] | < 5 |
| Cc1nnc(C)n1-c1cnc2c3ccc(C(C)(C)O)cc3n(C(c3ccccc3)C3CCOCC3)c2c1 (stereo in doubt) [Example 357, 2-[3-(Dimethyl-4H-1,2,4-triazol-4-yl)-5-[(R)-oxan-4-yl(phenyl)methyl]-5H-pyrido[3,2-b]indol-7-yl]propan-2-ol] | < 5 |
| CCC(CC)n1c2cc(C(C)(C)O)ccc2c2ncc(-c3c(C)noc3C)cc21 [Example 4] | < 25 |
| COCC(c1ccccc1)n1c2cc(C(C)(C)O)ccc2c2ncc(-c3c(C)noc3C)cc21 (stereo not drawn) [Example 5] | < 5 |
| Cc1noc(C)c1-c1cnc2c3ccc(C(C)(C)O)cc3n([C@@H](CCC(F)(F)F)c3ccccc3)c2c1 [Example 9] | < 5 |
| Cc1noc(C)c1-c1cnc2c3ccc(C(C)(C)O)cc3n([C@H](CCC(F)(F)F)c3ccccc3)c2c1 [Example 10] | < 25 |
| Cc1noc(C)c1-c1cnc2c3ccc(C(C)(C)O)cc3n([C@H](c3ccccc3)C3CC3)c2c1 [Example 11] | < 25 |
| Cc1noc(C)c1-c1cnc2c3ccc(C(C)(C)O)cc3n([C@@H](c3ccccc3)C3CC3)c2c1 [Example 12] | < 25 |
| Cc1noc(C)c1-c1cnc2c3ccc(C(C)(C)O)cc3n([C@H](c3ccccc3)C3CCC3)c2c1 [Example 13] | < 5 |
| Cc1noc(C)c1-c1cnc2c3ccc(C(C)(C)O)cc3n([C@@H](c3ccccc3)C3CCC3)c2c1 [Example 14] | < 25 |
| Cc1noc(C)c1-c1cnc2c3ccc(C(C)(C)O)cc3n([C@H](c3ccc(F)cc3)C3CCC3)c2c1 [Example 15] | < 5 |
| Cc1noc(C)c1-c1cnc2c3ccc(C(C)(C)O)cc3n([C@@H](c3ccc(F)cc3)C3CCC3)c2c1 [Example 16] | < 25 |
| Cc1noc(C)c1-c1cnc2c3ccc(C(C)(C)O)cc3n([C@H](c3ccc(F)cc3)C3CCOC(C)(C)C3)c2c1 (stereo partly drawn) [Example 17] | < 25 |
| Cc1noc(C)c1-c1cnc2c3ccc(C(C)(C)O)cc3n([C@@H](c3ccc(F)cc3)C3CCOC(C)(C)C3)c2c1 (stereo partly drawn) [Example 18] | < 1500 |
| Cc1noc(C)c1-c1cnc2c3ccc(C(C)(C)O)cc3n([C@H](CCC(F)(F)F)c3cscn3)c2c1 [Example 19] | < 5 |
| Cc1noc(C)c1-c1cnc2c3ccc(C(C)(C)O)cc3n([C@@H](CCC(F)(F)F)c3cscn3)c2c1 [Example 20] | < 25 |
| Cc1noc(C)c1-c1cnc2c3ccc(C(C)(C)O)cc3n([C@H](c3ccccn3)C3CCOCC3)c2c1 [Example 21] | < 5 |
| Cc1noc(C)c1-c1cnc2c3ccc(C(C)(C)O)cc3n([C@@H](c3ccccn3)C3CCOCC3)c2c1 [Example 22] | < 5 |
| Cc1noc(C)c1-c1cnc2c3ccc(C(C)(C)O)cc3n([C@@H](CCC(F)(F)F)c3ccccn3)c2c1 [Example 23] | < 5 |
| Cc1noc(C)c1-c1cnc2c3ccc(C(C)(C)O)cc3n([C@H](CCC(F)(F)F)c3ccccn3)c2c1 [Example 24] | < 1500 |
| Cc1noc(C)c1-c1cnc2c3ccc(C(C)(C)O)cc3n(C(C3CCC3)C3CCC3)c2c1 [Example 31, 2-[5-(Dicyclobutylmethyl)-3-(dimethyl-1,2-oxazol-4-yl)-5H-pyrido[3,2-b]indol-7-yl]propan-2-ol] | < 5 |

| SMILES | IC50 [nM] |
| --- | --- |
| Cc1noc(C)c1-c1cnc2c3ccc(C(=O)O)cc3n(C(c3ccccc3)C3CCOCC3)c2c1 (stereo not drawn) [Example 44, 3-(Dimethyl-1,2-oxazol-4-yl)-5-[oxan-4-yl(phenyl)methyl]-5H-pyrido[3,2-b]indole-7-carboxylic acid] | < 5 |
| Cc1noc(C)c1-c1cnc2c3ccc(C(=O)O)cc3n(C(c3ccccc3)c3ccccc3)c2c1 [Example 45, 3-(Dimethyl-1,2-oxazol-4-yl)-5-(diphenylmethyl)-5H-pyrido[3,2-b]indole-7-carboxylic acid] | < 5 |
| Cc1noc(C)c1-c1cnc2c3ccc(C(C)(C)O)cc3n(Cc3ccccc3)c2c1 [Example 46, 2-[5-Benzyl-3-(dimethyl-1,2-oxazol-4-yl)-5H-pyrido[3,2-b]indol-7-yl]propan-2-ol] | < 1500 |
| Cc1noc(C)c1-c1cnc2c3ccc(C(C)(C)O)cc3n(CC3CCOCC3)c2c1 [Example 47] | < 25 |
| Cc1noc(C)c1-c1cnc2c3ccc(C(C)(C)O)cc3n(Cc3ccc(F)cc3)c2c1 [Example 48] | < 25 |
| Cc1noc(C)c1-c1cnc2c3ccc(C(C)(C)O)cc3n(CC3CCC(F)(F)CC3)c2c1 [Example 49] | < 5 |
| Cc1noc(C)c1-c1cnc2c3ccc(C(F)F)cc3n(Cc3ccccc3)c2c1 [Example 50, 4-[5-Benzyl-7-(difluoromethyl)-5H-pyrido[3,2-b]indol-3-yl]-3,5-dimethyl-1,2-oxazole] | < 1500 |
| Cc1noc(C)c1-c1cnc2c3ccccc3n(Cc3ccccc3)c2c1 [Example 51, 4-(5-Benzyl-5H-pyrido[3,2-b]indol-3-yl)-3,5-dimethyl-1,2-oxazole] | < 1500 |
| Cc1noc(C)c1-c1cnc2c3ccc(S(C)(=O)=O)cc3n(Cc3ccccc3)c2c1 [Example 52, 4-(5-Benzyl-7-(methylsulfonyl)-5H-pyrido[3,2-b]indol-3-yl)-3,5-dimethyl-1,2-oxazole] | < 25 |
| Cc1noc(C)c1-c1cnc2c3c(C(C)(C)O)cccc3n(Cc3ccccc3)c2c1 [Example 53, 2-[5-Benzyl-3-(dimethyl-1,2-oxazol-4-yl)-5H-pyrido[3,2-b]indol-9-yl]propan-2-ol] | < 1500 |
| Cc1nnn(C)c1-c1cnc2c3ccc(C(C)(C)O)cc3n([C@@H](CCC(F)(F)F)c3ccccc3)c2c1 [Example 57] | < 5 |
| Cc1nnn(C)c1-c1cnc2c3ccc(C(C)(C)O)cc3n([C@H](CCC(F)(F)F)c3ccccc3)c2c1 [Example 58] | < 5 |
| Cc1nnn(C)c1-c1cnc2c3ccc(C(C)(C)O)cc3n([C@H](c3ccccn3)C3CCOCC3)c2c1 [Example 62] | < 25 |
| Cc1nnn(C)c1-c1cnc2c3ccc(C(C)(C)O)cc3n([C@@H](c3ccccn3)C3CCOCC3)c2c1 [Example 63] | < 25 |
| Cc1nnn(C)c1-c1cnc2c3ccc(C(C)(C)O)cc3n([C@H](c3ccccc3F)C3CCOCC3)c2c1 [Example 64] | < 5 |
| Cc1nnn(C)c1-c1cnc2c3ccc(C(C)(C)O)cc3n([C@@H](c3ccccc3F)C3CCOCC3)c2c1 [Example 65] | < 5 |
| Cc1nnn(C)c1-c1cnc2c3ccc(C(C)(C)O)cc3n(Cc3ccccc3)c2c1 [Example 69, 2-[5-Benzyl-3-(dimethyl-1H-1,2,3-triazol-5-yl)-5H-pyrido[3,2-b]indol-7-yl]propan-2-ol] | < 5 |
| Cc1nnn(C)c1-c1cnc2c3ccc(C(C)(C)O)cc3n([C@H](c3ccc(F)cc3)C3CCOCC3)c2c1 [Example 72] | < 25 |
| Cc1nnn(C)c1-c1cnc2c3ccc(C(C)(C)O)cc3n([C@H](c3ccccc3F)C3CCOCC3)c2c1 [Example 76] | < 5 |
| Cc1nnn(C)c1-c1cnc2c3ccc(C(C)(C)O)cc3n([C@@H](c3ccccc3F)C3CCOCC3)c2c1 [Example 77] | < 5 |
| Cc1noc(C)c1-c1cnc2c3ccc(C(C)(C)O)cc3n([C@H](CCC(F)(F)F)c3ccccc3C(F)(F)F)c2c1 [Example 84] | < 1500 |
| Cc1noc(C)c1-c1cnc2c3ccc(C(C)(C)O)cc3n([C@@H](CCC(F)(F)F)c3ccccc3Cl)c2c1 [Example 86] | < 5 |
| Cc1noc(C)c1-c1cnc2c3ccc(C(C)(C)O)cc3n([C@H](CCC(F)(F)F)c3ccccc3Cl)c2c1 [Example 87] | < 1500 |
| Cn1nnc(CO)c1-c1cnc2c3ccc(C(C)(C)O)cc3n([C@H](c3ccccc3)C3CCOCC3)c2c1 [Example 88, (S)-2-(3-(4-(Hydroxymethyl)-1-methyl-1H-1,2,3-triazol-5-yl)-5-(phenyl(tetrahydro-2H-pyran-4-yl)methyl)-5H-pyrido[3,2-b]indol-7-yl)propan-2-ol] | < 5 |
| COCc1nnn(C)c1-c1cnc2c3ccc(C(C)(C)O)cc3n([C@H](c3ccccc3)C3CCOCC3)c2c1 [Example 89, 2-{3-[4-(Methoxymethyl)-1-methyl-1H-1,2,3-triazol-5-yl]-5-[(S)-oxan-4-yl(phenyl)methyl]-5H-pyrido[3,2-b]indol-7-yl}propan-2-ol] | < 25 |
| [2H][C@@](c1ccccc1)(C1CCOCC1)n1c2cc(C(C)(C)O)ccc2c2ncc(-c3c(C)nnn3C)cc21 [Example 90, 2-[3-(Dimethyl-1H-1,2,3-triazol-5-yl)-5-[(S)-oxan-4-yl(phenyl)(^2H)methyl]-5H-pyrido[3,2-b]indol-7-yl]propan-2-ol] | < 5 |
| Cc1nnn(C)c1-c1cnc2c3ccc(C(C)(C)O)cc3n([C@@H](c3ccccc3)C3CCOCC3)c2c1 [Example 91, 2-[3-(dimethyl-1H-1,2,3-triazol-5-yl)-5-[(R)-oxan-4-yl(phenyl)(^2H)methyl]-5H-pyrido[3,2-b]indol-7-yl]propan-2-ol] | < 25 |
